{"source": "patent US8198291B2", "about": "“Intranasal opioid compositions” (University of Kentucky Research Foundation, priority 2000, dated 2012)", "key": {"[1]": {"assay": "Bioavailability/bioequivalence of intranasal butorphanol formulation, unit-dose vs multi-dose spray device", "type": "in vivo, human", "experimental": "This example compares bioavailability of a butorphanol formulation when administered using a unit-dose or multi-dose delivery device. The formulation contains 10 mg butorphanol tartrate, 6.5 mg sodium chloride, 1.0 mg citric acid, 0.20 mg benzethonium chloride in purified water with 1.2 mg sodium hydroxide and hydrochloric acid added to adjust the pH to 5.0. The multi-dose sprayer purports by its label to administer 0.1 ml of liquid composition by metering upon activation by the user. The formulation had the following function and properties when administered to human subjects via the Pfeiffer Unitdose Second Generation spray device.\nThe second delivery system employed to administer the butorphanol compositions was a unit-dose disposable intranasal applicator that is commercially available from Pfeiffer of America under the designation “Unitdose Second Generation.” Each of the Pfeiffer spray applicators was charged with sufficient liquid to deliver a 0.1 mL dose of the butorphanol test formulation. The glass containers were filled using a pipette under clean conditions, sealed and assembled to the applicator. Each of the applicators was weighed prior to use and after use. Qualified medical personnel administered, one dose into each nostril, after which the applicator was recovered for weighing. In the case of the unit-dose applicators (test formulation), two devices were used for each patient, both of which were discarded following the post-use weighing. The results of these studies of the method and system of the invention and the comparative prior art method follow.\nThis example assesses the bioequivalence of a butorphanol formulation administered from the unit-dose or multi-dose sprayers described above. The test formulation comprises 1 ml of STADOL NS containing 10 mg butorphanol tartrate, 6.5 mg sodium chloride, 1.0 mg citric acid, 0.20 mg benzethonium chloride in purified water with 1.2 mg sodium hydroxide and hydrochloric acid added to adjust the pH to 5.0. The multi-dose sprayer accompanying STADOL NS purports, by its label, to administer 0.1 ml of liquid. The unit-dose delivery device delivers 0.1 ml of liquid.\nThe second analysis was to determine whether the intrasubject variabilities of the two spray devices are equal. The study was initiated with 16 subjects, 15 of which completed the study to provide data for this analysis; one subject dropped out after the second period. The following analysis considers both raw and normalized data, with the latter standardized with respect to the dose dispensed.\nFor both the raw and normalized data, log transformations are applied to the pharmacokinetic endpoints Cmax, AUC ([…]), and AUC(inf.). A mixed effects model was considered for each parameter. Fixed effects for the factors sequence (4 levels), period 3 levels) and formulation (2 levels) were included in the model. Additionally, gender, as well as the interactions between gender and each of sequence, period and formulation was included as a factor in each model to determine whether separate analyses would be necessary for males and females. A total of seven models were considered: Tmax, log of raw Cmax values, log of normalized Cmax values, log transformed values for raw and normalized AUC(last), and log values for raw and normalized AUC(inf.). […] In addition, the lack of significance of the effects included in each model indicate that there was no evidence of unequal carryover between the delivery system of the prior art and that in one embodiment of the present invention.\nThe mean levels of butorphanol from analysis of the subject's blood plasma reported in pg/ml are plotted against time in FIGS. 1 and 2. The concentration of drug for the unit-dose was unexpectedly higher than that of the multi-dose system. The testing for bioequivalence was done using the method of two one-sided t-test (as described by Bolton, S., Pharmaceutical Statistics. Marcel Dekker, Inc., New York, 1997, pages 415 ff.). […]"}, "[2]": {"assay": "Pharmacokinetics of butorphanol formulation without benzethonium chloride, Pfeiffer Unitdose Second Generation device", "type": "in vivo, human", "conditions": "single 2 mg intranasal dose, unit-dose device", "source_text": "This formulation had the following spray pattern function when sprayed from the Pfeiffer Unitdose Second Generation device onto an impaction plate from at various distances.\nThe formulation had the following function and properties when administered to human subjects via the Pfeiffer Unitdose Second Generation spray device."}, "[3]": {"conditions": "2 mg intranasal dose, Pfeiffer Unitdose Second Generation spray device, formulation with benzethonium chloride"}, "[4]": {"conditions": "90% CI, line between normCmax and normAUCinf, exponentiated, unit-dose vs multi-dose"}, "[5]": {"conditions": "90% CI, normalized to dispensed dose, exponentiated, unit-dose vs multi-dose"}, "[6]": {"conditions": "90% CI, raw data, exponentiated, unit-dose vs multi-dose"}, "[7]": {"conditions": "90% confidence interval, unit-dose (test) vs multi-dose (reference)"}, "[8]": {"conditions": "intranasal, multi-dose spray pump"}}}
{"smiles": "O=C(O)C(O)C(O)C(=O)O.Oc1ccc2c(c1)[C@@]13CCCC[C@@]1(O)[C@@H](C2)N(CC1CCC1)CC3", "note": "[butorphanol tartrate]", "values": [{"measurement": "AUC(0-t)", "setting": "[1]; [3]", "result": "about 10661 pg*hr/ml"}, {"measurement": "Cmax", "setting": "[1]; [3]", "result": "about 5230 pg/ml"}, {"measurement": "Tmax", "setting": "[1]; [3]", "result": "about 0.234 hr"}, {"measurement": "log(AUClast) (second line of the table), Lower Conf Limit for Ratio of Test/Reference", "setting": "[1]; [4]", "result": 0.921}, {"measurement": "log(AUClast) (second line of the table), Upper Conf Limit for Ratio of Test/Reference", "setting": "[1]; [4]", "result": 1.290}, {"measurement": "log(normAUCinf), Lower Conf Limit for Ratio of Test/Reference", "setting": "[1]; [5]", "result": 0.937}, {"measurement": "log(normAUCinf), Upper Conf Limit for Ratio of Test/Reference", "setting": "[1]; [5]", "result": 1.220}, {"measurement": "log(normCmax), Lower Conf Limit for Ratio of Test/Reference", "setting": "[1]; [5]", "result": 0.897}, {"measurement": "log(normCmax), Upper Conf Limit for Ratio of Test/Reference", "setting": "[1]; [5]", "result": 1.589}, {"measurement": "log (AUClast), Lower Conf Limit for Ratio of Test/Reference", "setting": "[1]; [6]", "result": 1.037}, {"measurement": "log (AUClast), Upper Conf Limit for Ratio of Test/Reference", "setting": "[1]; [6]", "result": 1.540}, {"measurement": "log (Cmax), Lower Conf Limit for Ratio of Test/Reference", "setting": "[1]; [6]", "result": 1.031}, {"measurement": "log (Cmax), Upper Conf Limit for Ratio of Test/Reference", "setting": "[1]; [6]", "result": 1.855}, {"measurement": "log(AUCinf), Lower Conf Limit for Ratio of Test/Reference", "setting": "[1]; [6]", "result": 1.050}, {"measurement": "log(AUCinf), Upper Conf Limit for Ratio of Test/Reference", "setting": "[1]; [6]", "result": 1.461}, {"measurement": "Tmax, Lower Conf Limit for Ratio of Test/Reference", "setting": "[1]; [7]", "result": 0.749}, {"measurement": "Tmax, Upper Conf Limit for Ratio of Test/Reference", "setting": "[1]; [7]", "result": 1.132}, {"measurement": "AUC(0-t)", "setting": "[1]; [8]", "result": 9.329, "unit": "ng·h/mL"}, {"measurement": "Cmax", "setting": "[1]; [8]", "result": 4.072, "unit": "ng/mL"}, {"measurement": "Tmax", "setting": "[1]; [8]", "result": 14.7, "unit": "min"}, {"measurement": "area under the curve from multi-dose device as percent of that of the test (unit-dose)", "setting": "[1]; multi-dose vs unit-dose device", "result": 90, "unit": "%"}, {"measurement": "higher area under the curve of test device compared to reference device", "setting": "[1]; unit-dose vs multi-dose device", "result": 10, "unit": "%"}, {"measurement": "higher serum levels of test device compared to reference device", "setting": "[1]; unit-dose vs multi-dose device", "result": 10, "unit": "%"}, {"measurement": "Tmax", "setting": "[2]", "result": "about 0.25 hr"}]}
